# Results taken from publication PMC6704710, “Preclinical evaluation of 3D185, a novel potent inhibitor of FGFR1/2/3 and CSF-1R, in FGFR-dependent and macrophage-dominant cancer models” (Journal of Experimental & Clinical Cancer Research : CR, 2019).
# Columns and labels:
# Test in all cases: Eurofins kinase panel
# Assay type in all cases: biochemical
# B-Raf(h) = biological target: T1, B-Raf(h) (Homo sapiens, UniProt P15056); details: read-out: Inhibition rate (%)
# T1 construct: purchased Eurofins (KinaseProfiler)
# T1 sequence (P15056 whole entry): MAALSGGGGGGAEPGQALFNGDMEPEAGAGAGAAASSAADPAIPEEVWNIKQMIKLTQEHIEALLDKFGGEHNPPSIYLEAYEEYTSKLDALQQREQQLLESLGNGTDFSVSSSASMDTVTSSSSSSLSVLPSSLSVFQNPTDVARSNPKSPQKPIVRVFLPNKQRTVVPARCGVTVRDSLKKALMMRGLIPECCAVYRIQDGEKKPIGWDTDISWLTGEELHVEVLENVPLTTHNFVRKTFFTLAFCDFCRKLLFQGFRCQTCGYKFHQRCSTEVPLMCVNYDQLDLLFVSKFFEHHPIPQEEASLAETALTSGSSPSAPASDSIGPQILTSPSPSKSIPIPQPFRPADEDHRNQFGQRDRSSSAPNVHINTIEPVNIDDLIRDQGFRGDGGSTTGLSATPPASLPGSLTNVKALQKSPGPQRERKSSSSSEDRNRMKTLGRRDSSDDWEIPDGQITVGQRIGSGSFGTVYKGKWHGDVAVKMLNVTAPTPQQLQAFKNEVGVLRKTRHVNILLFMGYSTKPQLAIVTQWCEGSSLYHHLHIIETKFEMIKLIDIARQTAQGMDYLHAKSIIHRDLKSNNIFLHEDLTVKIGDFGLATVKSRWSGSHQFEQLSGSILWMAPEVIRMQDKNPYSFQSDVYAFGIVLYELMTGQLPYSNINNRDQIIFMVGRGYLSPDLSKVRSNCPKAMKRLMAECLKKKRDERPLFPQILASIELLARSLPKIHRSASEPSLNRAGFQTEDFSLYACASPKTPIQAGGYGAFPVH
# BMPR2(h) = biological target: T2, BMPR2(h) (Homo sapiens, UniProt Q13873); details: read-out: Inhibition rate (%)
# T2 construct: purchased Eurofins (KinaseProfiler)
# T2 sequence (Q13873 27-1038): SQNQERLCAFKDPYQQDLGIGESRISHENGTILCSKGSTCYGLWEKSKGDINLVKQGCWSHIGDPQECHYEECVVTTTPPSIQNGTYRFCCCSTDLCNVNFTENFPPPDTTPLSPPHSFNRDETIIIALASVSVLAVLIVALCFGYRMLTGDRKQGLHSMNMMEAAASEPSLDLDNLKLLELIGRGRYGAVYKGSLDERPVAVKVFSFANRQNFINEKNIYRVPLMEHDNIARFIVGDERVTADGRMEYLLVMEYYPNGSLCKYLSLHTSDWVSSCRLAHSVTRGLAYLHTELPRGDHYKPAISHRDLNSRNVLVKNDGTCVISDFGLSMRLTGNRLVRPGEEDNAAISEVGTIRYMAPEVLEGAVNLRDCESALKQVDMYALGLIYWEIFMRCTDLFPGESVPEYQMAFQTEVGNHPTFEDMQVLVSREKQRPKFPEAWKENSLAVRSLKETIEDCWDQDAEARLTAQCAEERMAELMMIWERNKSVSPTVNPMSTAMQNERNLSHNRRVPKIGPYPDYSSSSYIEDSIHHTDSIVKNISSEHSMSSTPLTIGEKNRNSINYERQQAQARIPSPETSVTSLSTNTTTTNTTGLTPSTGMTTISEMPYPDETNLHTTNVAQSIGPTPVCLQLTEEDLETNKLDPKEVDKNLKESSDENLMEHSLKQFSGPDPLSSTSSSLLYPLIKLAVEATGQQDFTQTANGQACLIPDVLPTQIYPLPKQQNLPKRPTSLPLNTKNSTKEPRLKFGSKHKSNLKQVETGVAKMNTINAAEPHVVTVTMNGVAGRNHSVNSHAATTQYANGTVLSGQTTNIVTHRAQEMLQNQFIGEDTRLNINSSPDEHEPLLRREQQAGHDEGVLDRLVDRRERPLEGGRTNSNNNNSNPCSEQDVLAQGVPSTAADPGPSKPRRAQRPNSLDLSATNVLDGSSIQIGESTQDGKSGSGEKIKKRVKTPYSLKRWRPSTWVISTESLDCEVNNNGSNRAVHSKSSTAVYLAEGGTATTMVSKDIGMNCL
# CK1(y) = test system: CK1(y)
# TAO2(h) = biological target: T3, TAO2(h) (Homo sapiens, UniProt Q9UL54); details: read-out: Inhibition rate (%)
# T3 construct: purchased Eurofins (KinaseProfiler)
# T3 sequence (Q9UL54 1-1235): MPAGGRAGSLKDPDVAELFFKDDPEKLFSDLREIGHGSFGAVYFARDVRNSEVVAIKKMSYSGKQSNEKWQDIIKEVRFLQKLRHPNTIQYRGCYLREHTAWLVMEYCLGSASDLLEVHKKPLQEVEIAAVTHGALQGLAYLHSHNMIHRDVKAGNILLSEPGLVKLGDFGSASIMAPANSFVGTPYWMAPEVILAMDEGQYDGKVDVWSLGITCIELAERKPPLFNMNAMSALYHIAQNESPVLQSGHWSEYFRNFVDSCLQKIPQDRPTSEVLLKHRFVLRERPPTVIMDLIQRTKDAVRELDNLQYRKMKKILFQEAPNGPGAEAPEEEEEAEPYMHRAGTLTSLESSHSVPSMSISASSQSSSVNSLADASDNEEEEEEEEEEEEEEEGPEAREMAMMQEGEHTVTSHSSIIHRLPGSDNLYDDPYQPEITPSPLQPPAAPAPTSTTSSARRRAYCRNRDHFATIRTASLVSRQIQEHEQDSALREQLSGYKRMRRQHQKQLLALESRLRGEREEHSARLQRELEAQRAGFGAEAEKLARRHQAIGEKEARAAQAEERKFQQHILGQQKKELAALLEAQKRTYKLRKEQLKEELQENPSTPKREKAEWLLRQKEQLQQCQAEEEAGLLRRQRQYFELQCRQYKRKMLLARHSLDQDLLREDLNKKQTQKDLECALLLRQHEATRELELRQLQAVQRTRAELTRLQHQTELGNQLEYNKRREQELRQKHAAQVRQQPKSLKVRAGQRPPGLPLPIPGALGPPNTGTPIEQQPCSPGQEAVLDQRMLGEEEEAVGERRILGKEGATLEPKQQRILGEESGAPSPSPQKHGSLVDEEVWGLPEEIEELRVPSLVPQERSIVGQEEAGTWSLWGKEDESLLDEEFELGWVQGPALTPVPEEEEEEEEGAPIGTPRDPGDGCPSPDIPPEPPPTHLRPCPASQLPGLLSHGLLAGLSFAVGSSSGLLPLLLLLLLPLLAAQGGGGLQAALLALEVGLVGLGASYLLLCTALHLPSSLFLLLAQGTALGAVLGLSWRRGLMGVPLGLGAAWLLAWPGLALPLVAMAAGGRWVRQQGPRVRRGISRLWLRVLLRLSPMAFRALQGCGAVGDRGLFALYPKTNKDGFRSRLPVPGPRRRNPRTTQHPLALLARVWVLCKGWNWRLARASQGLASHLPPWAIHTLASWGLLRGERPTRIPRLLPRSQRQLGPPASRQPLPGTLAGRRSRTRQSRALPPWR
smiles,measurement,setting,value
COc1cc(OC)c(Cl)c(-c2ccc3c(NC(=O)c4ccc(N5CCNC(C)(C)C5)cc4)n[nH]c3n2)c1Cl [3D185],inhibition at 0.01 µM,B-Raf(h); 10 nM,-4%
same,inhibition at 0.1 µM,B-Raf(h); 100 nM,-5%
same,inhibition at 1 µM,B-Raf(h); 1000 nM,5%
same,inhibition at 0.01 µM,BMPR2(h); 10 nM,5%
same,inhibition at 0.1 µM,BMPR2(h); 100 nM,-2%
same,inhibition at 1 µM,BMPR2(h); 1000 nM,4%
same,Inhibition rate (%),CK1(y); 10 nM,-1%
same,Inhibition rate (%),CK1(y); 100 nM,0%
same,Inhibition rate (%),CK1(y); 1000 nM,2%
same,inhibition at 0.01 µM,TAO2(h); 10 nM,12%
same,inhibition at 0.1 µM,TAO2(h); 100 nM,28%
same,inhibition at 1 µM,TAO2(h); 1000 nM,66%
